Earlier results in patent publication US20160114057A1, “MODULAR PROTEIN DRUG CONJUGATE THERAPEUTIC” (ZYMEWORKS INC., priority 2013, published 2016).
Values joined by “and” are separate entries in the source; they are usually repeats but may differ in a detail not shown here. Equal values may be shown once. Read-outs that look alike come from different tables or passages of the source. *1 amine or outer side, *2 acyl side, *3 side chain or, on linkers, in order; H or OH if unused. Where a SMILES comes first, the peptide text is derived from it. Bridges are numbered along the chain shown (N, C = ends). [ ]: non-standard residue; d: D form. The star is where a group is joined. X2 = CC[C@@H](C)C[C@H](N[*:1])C(=O)[*:2]; X1 = CC[C@H](C)CC(N[*:1])C(=O)[*:2]; d(aThr) = C[C@@H](O)[C@@H](N)C(=O)O; NMe2Val = CC(C)[C@@H](C(=O)*)N(C)C; NMeT = CN[C@H](C(=O)O)[C@@H](C)O; Suc = O=C(CCC(=O)[*:2])[*:1]; NMeV = CN[C@H](C(=O)O)C(C)C; NHBn = c1ccc(CN*)cc1; Dha = C=C(N)C(=O)O

Columns and labels:
[1] = system: various tumor cell lines
[2] = system: NCI tumor panel (60 cell line); conditions: for IC50: range over cell lines
[3] = system: MDR cell lines
[4] = not given; remark: listed apart in the source
[5] = in vivo
[6] = system: P388
[7] = system: HCT-116
[8] = system: MCF-7/ADR
[9] = system: MCF-7 (breast)
[10] = human, in vivo
[11] = KB-31 (melanoma)
[12] = system: KB

C=C1NC(=O)[C@H]([C@@H](C)CC)NC(=O)[C@@H]2CSSC[C@H](NC(=O)CCC(=O)O)C(=O)N[C@H](Cc3ccccc3)C(=O)N[C@H](C)C(=O)NC(C[C@@H](C)CC)C(=O)N[C@@H](C(=O)N[C@H](Cc3ccccc3)C(=O)N3CCC[C@H]3C(=O)N2)[C@@H](C)OC(=O)[C@H](CO)NC(=O)[C@H]([C@@H](C)OC)N(C)C(=O)[C@@H](C(C)C)NC(=O)[C@H](C[C@H](C)CC)NC1=O (stereo partly shown) [Vitilevuamide] (Suc-C[dF][dA][X1][d(aThr)][dF]PCI[Dha][X2][dV][NMeT](Me)S; disulfide 1-8; ester 5-C)
IC50 ([1]; panel of tumor cell lines HCT116, A549, SK-MEL-5, A498 cells, read-out: IC50): 6000 to 311000 pM

CC(C)[C@H](NC(=O)[C@H](C(C)C)N(C)C)C(=O)N(C)[C@H](C(=O)N1CCC[C@H]1C(=O)N1CCC[C@H]1C(=O)NCc1ccccc1)C(C)C [Cemadotin] (NMe2Val-V[NMeV]PP-NHBn)
activity in NCI tumor panel (in words) [2]: active in breast,
Toxicity (in words): hypertension,

COc1ccc(C[C@H]2NC(=O)/C=C/C[C@@H]([C@H](C)[C@H]3O[C@@H]3c3ccccc3)OC(=O)[C@H](CC(C)C)OC(=O)C(C)(C)CNC2=O)cc1Cl [Cryptophycin analogs (including 52, 55 and others)]
activity against multi-drug/drug resistant cell lines (in words) [3]: pM; active against
IC50 ([1]; broad activity (lung, breast, colon, leukemia), read-out: IC50): 2 to 40 pM

Didemnin B
MTD ([4]; in vivo): 6.3 mg/Kg; toxicity
Toxicity (in words): cardiotoxicity;
activity against multi-drug/drug resistant cell lines (in words) [3]: Not potent against
t1/2 [5]: cleared (t1/2 4.8 hrs

CC[C@H](C)[C@@H]([C@@H](CC(=O)N1CCC[C@H]1[C@H](OC)[C@@H](C)C(=O)N[C@@H](Cc1ccccc1)c1nccs1)OC)N(C)C(=O)[C@@H](NC(=O)[C@H](C(C)C)N(C)C)C(C)C [Dolastatin-10]
concentration with myelotoxicity (in vivo): greater than 0.3 pM)

CCCC1(O)C(O)C(C)C/C=C/C=C/C(CC(C)O)CCC2OC3(CCC(C)C(C(C)C(O)CC)O3)C(C)C(OC(=O)/C=C/C(C)C(O)C(C)C(O)C(OC3CCC(O)C(C)O3)C(O)C(O)C1O)C2C (stereo not shown) [IB-96212]
IC50 [6]: 0.1 P388 ng/mL

Halichondrin B
Toxicity (in words) (in vivo): myelotoxicity dose

C/C(=C\c1csc(C)n1)[C@@H]1C[C@@H]2O[C@]2(C)CCC[C@H](C)[C@H](O)[C@@H](C)C(=O)C(C)(C)[C@@H](O)CC(=O)O1 [Epothione B]
IC50 [7]: 420 pM
IC50 [8]: 2920 pM
IC50 [9]: 180 pM
t1/2 [5]: 2.5 h
activity in cell culture (in words) [1]: broad activity
clinical responses (in words) [10]: partial
IC50 [11]: 190 pM

C=C(Cl)/C=C/[C@@H](O)CC(=C)C[C@H]1O[C@@H]2[C@H](C)[C@@H](OC(=O)C[C@@H]3C[C@H](OC(C)=O)C[C@@]4(C[C@@](C)(O)C[C@H](CC(=C)[C@@H](C)C(OC(C)=O)[C@H](C)C(=O)C[C@@H]5C[C@H](OC)C[C@@]6(C[C@@H](O)C[C@H](/C=C\CCC[C@H]7O[C@](O)(C[C@H](O)[C@H]7C)[C@H]2O)O6)O5)O4)O3)[C@@H]1O (stereo partly shown) [Spongistatins (1-9)]
activity in NCI tumor panel (in words) [2]: Most potent
GI50 ([2]; NCI panel cell line, read-out: mean GI50): 100 pM

CO[C@@H](/C(C)=C/C=C/C(C)=C/c1coc(C)n1)[C@@H](C)[C@@H]1C[C@H](O)[C@@]2(C)O[C@@H]2/C=C/[C@@H](C)[C@H]2C[C@H](CC(=O)O2)C[C@H]2O[C@H]2C(=O)O1 [Rhizoxin]
Toxicity (in words): Rapid Drug

CCCC1C(=O)O[C@H](/C(C)=C/c2csc(C)n2)C[C@@H]2O[C@]2(C)CCC[C@H](C)[C@H](O)[C@@H](C)C(=O)C(C)(C)[C@H]1O (stereo partly shown) [ZK-EPO]
activity against multi-drug/drug resistant cell lines (in words) [3]: active in drug

C/C(=C\c1csc(C)n1)[C@@H]1C[C@@H]2O[C@@H]2CCC[C@H](C)[C@H](O)[C@@H](C)C(=O)C(C)(C)[C@@H](O)CC(=O)O1 [Epothilone A]
IC50 [7]: 3200 pM
IC50 [8]: 27100 pM
IC50 [9]: 1500 pM
IC50 [11]: 2100 pM

CN[C@H](C(=O)N[C@H](C(=O)N(C)[C@H](/C=C(\C)C(=O)O)C(C)C)C(C)(C)C)C(C)(C)c1c[nH]c2ccccc12 [Hemiasterlins A & B and analogs]
IC50 [9]: 300 to 3000 pM
IC50 [6]: 0.4 ng/mL P388

Epothilone D
Toxicity (in words): emesis and anemia;
IC50 [7]: 420 pM
t1/2 [5]: t1/2 of 5-10 hrs.
activity in cell culture (in words) [1]: broad activity
IC50 [11]: 190 pM

CO[C@]12C=C[C@](C)(O1)[C@@H](OC(=O)/C=C/c1cn(C)cn1)C[C@H]1C(C)=CC[C@H](C(C)C)[C@H]1/C=C\2CO[C@@H]1OC[C@@H](O)[C@@H](O)[C@@H]1OC(C)=O [Eleutherobins]
activity against multi-drug/drug resistant cell lines (in words) [3]: taxol; not effective

CC(=O)O[C@H]1C(=O)[C@@]2(C)[C@H]([C@H](OC(=O)c3ccccc3)[C@]3(O)C[C@H](OC(=O)[C@H](O)[C@@H](NC(=O)c4ccccc4)c4ccccc4)C(C)=C1C3(C)C)[C@]1(OC(C)=O)CO[C@@H]1C[C@@H]2O [Taxol]
Toxicity (in words) (in vivo): severe toxicity

COc1cc([C@@H]2c3cc4c(cc3[C@H](O)[C@H]3COC(=O)[C@H]23)OCO4)cc(OC)c1OC [Podophyllotoxin]
activity in cell culture (in words) [1]: in μM range

C=C1C[C@@H]2CCO[C@H]3[C@@H]4O[C@H]5CC[C@H](CC(=O)O[C@@H]6[C@@H](C)[C@@H]7O[C@@H]8C[C@]9(C[C@@H]%10O[C@]%11(C[C@H](C)[C@@H]%12O[C@H](CC(=O)CCO)[C@H](O)C[C@@H]%12O%11)C[C@H](C)[C@@H]%10O9)O[C@@H]8C[C@@H]7O[C@H]6C[C@H]6O[C@@H](CC[C@@H]1O2)C[C@@H](C)C6=C)O[C@@H]5[C@@H]1OCC[C@H]3O[C@@H]14 [Isohomo-halichondrin B]
IC50 ([2]; NCI tumor panel): ~100 pM

COc1cc2cc(c1Cl)N(C)C(=O)C[C@H](OC(=O)[C@H](C)N(C)C(C)=O)[C@]1(C)O[C@H]1[C@H](C)[C@@H]1C[C@@](O)(NC(=O)O1)[C@H](OC)/C=C/C=C(\C)C2 [Maytansine]
Toxicity (in words): severe toxicity

COc1ccc(C[C@H]2NC(=O)/C=C/C[C@@H]([C@H](C)[C@H]3O[C@@H]3c3ccccc3)OC(=O)[C@H](CC(C)C)OC(=O)CCNC2=O)cc1 [Arenastatin A analogs]
Activity (IC50) ([12]; KB (nasopharyngeal)): 0.005 ng/mL
IC50 ([12]; KB, read-out: Activity (IC50)): 8700 pM

C=C1C[C@@H]2C[C@@H]3C[C@@H](O)C[C@@H](O3)c3coc(n3)/C=C/C[C@H]3O[C@@H](/C(C)=C/c4coc(C[C@]5(O)CC(OC)C[C@H]([C@H](O)/C=C(C)/C=C/C(C/C=C/Br)OC)O5)n4)[C@H](C)[C@@H](OC(=O)/C=C\C[C@@H](C1)O2)[C@H]3C (stereo partly shown) [Phorboxazole A]
IC50 ([2]; NCI tumor panel): 1000 to 10000 pM

COc1ccc(C[C@H]2NC(=O)/C=C/C[C@@H]([C@H](C)[C@@H](O)[C@@H](Cl)c3ccccc3)OC(=O)[C@H](CC(C)C)OC(=O)[C@H](C)CNC2=O)cc1Cl [Cryptophycin 8]
activity in cell culture (in words) [1]: broad spectrum

C/C(=C\c1csc(C)n1)[C@@H]1C[C@@H]2O[C@]2(C)CCC[C@H](C)[C@H](O)[C@@H](C)C(=O)C(C)(C)[C@@H](O)CC(=O)N1 [BMS-247550]
Toxicity (in words): sever toxicity
clinical responses (in words) [10]: tumor (objective

CCCCCCCCCCCCCCCC(=O)OC1CC(C(C)C(OC)/C(C)=C/C=C/C(C)=C/c2coc(C)n2)OC(=O)C2OC2CC2CC(=O)OC(C2)C(C)/C=C/C2OC21C (stereo not shown) [Palmitoylrhizoxin]
Toxicity (in words): binds LDL; less

C=CC[C@@H](CC/C(C)=C/C=C/CC/C=C\[C@@H]1CSC([C@@H]2C[C@@H]2C)=N1)OC [Curacin A and analogs]
IC50 ([1]; broad activity (cancer cell lines), read-out: Activity (IC50)): 1000 to 29000 pM

C=C(C)[C@@H]1NC(=O)[C@@H](NC)[C@@H](O)c2cc(Cl)c(O)c(c2)O[C@](C)(CC)[C@@H](C(=O)N2CC=C[C@H]2C(=O)N/C(C(=O)N/C(=C/C(=O)O)C(=O)O)=C(\C)CC)NC1=O [Phomopsin A]
activity in cell culture (in words) [1]: potent anticancer

C=C(Cl)/C=C/[C@@H](O)CC(=C)C[C@H]1O[C@@H]2[C@H](C)[C@@H](OC(=O)C[C@@H]3C[C@H](OC(C)=O)C[C@@]4(C[C@@](C)(O)C[C@H](CC(=C)[C@@H](C)C(OC(C)=O)[C@H](C)C(=O)C[C@@H]5C[C@H](OC)C[C@@]6(C[C@@H](O)C[C@H](/C=C\CCC[C@H]7O[C@](O)(C[C@H](O)[C@H]7C)[C@H]2O)O6)O5)O4)O3)[C@@H]1O (stereo partly shown) [Spongistatin-1]
GI50 ([2]; NCI tumor panel, values or ends of the range over cell lines, read-out: GI50): ≥ 25 pM and ≤ 35 pM

CC[C@H](C)[C@@H]([C@@H](CC(=O)N1CCC[C@H]1[C@H](OC)[C@@H](C)C(=O)NCCc1ccccc1)OC)N(C)C(=O)[C@@H](NC(=O)[C@H](C(C)C)N(C)C)C(C)C [soblidotin]
MTD ([4]; IV): MTD was 1.8 mg/Kg
inhibition ([1]; cell culture: colon, melanoma, M5076 tumors, P388, dose not reported): 75-85% inhibition

CC/C=C\C=C/C(=O)N/C=C/CC1CC2CC(O)CC(Cc3cccc(O)c3C(=O)O1)O2 (stereo not shown) [Apicularen A]
IC50 [1]: IC50's of 0.1 to 3 ng/mL

C/C(=C\c1csc(CN)n1)[C@@H]1C[C@@H]2O[C@]2(C)CCC[C@H](C)[C@H](O)[C@@H](C)C(=O)C(C)(C)[C@@H](O)CC(=O)O1 [BMS-310705]
Toxicity (in words) (in vivo): adverse events
t1/2 [5]: 3.5 hrs; improved
IC50 ([1]; broad activity, read-out: IC50): 700 to 10000 pM
